From the supplement of paper PMC10307832

How the values were obtained:
Experiment in all cases: relative viability (nuclei count vs DMSO), 5 days (fraction); higher = more cells survive
Decitabine + Crizotinib = compound: Nc1ncn([C@H]2C[C@H](O)[C@@H](CO)O2)c(=O)n1 [Decitabine] + C[C@@H](Oc1cc(-c2cnn(C3CCNCC3)c2)cnc1N)c1c(Cl)ccc(F)c1Cl [Crizotinib] (partner 1 µM)
Outline: (§1)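 Relative viability divides the nuclei count in treated wells by that in vehicle wells. Lung cancer cell lines were seeded in 1536-well plates, dosed by pin tool the next day, and fixed and stained after 5 days in one step with final 0.05% Triton X-100, 1% formaldehyde and 1 ug/ml Hoechst. Dosing was a single drug or a fixed anchor-drug dose plus five library-drug doses (not always all listed) in √10 steps, and values are medians of duplicate plates imaged at 4×.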

Decitabine + Tozasertib = compound: Nc1ncn([C@H]2C[C@H](O)[C@@H](CO)O2)c(=O)n1 [Decitabine] + Cc1cc(Nc2cc(N3CCN(C)CC3)nc(Sc3ccc(NC(=O)C4CC4)cc3)n2)n[nH]1 [Tozasertib] (partner 0.1 µM)
Outline: as §1

[1] = compound: O=C(C[C@H]1NCCC[C@@H]1O)Cn1cnc2cc(Br)c(Cl)cc2c1=O (racemic) [Halofuginone] + CC1(C)CCC(c2ccc(Cl)cc2)=C(CN2CCN(c3ccc(C(=O)NS(=O)(=O)c4ccc(N[C@H](CCN5CCOCC5)CSc5ccccc5)c(S(=O)(=O)C(F)(F)F)c4)cc3)CC2)C1 [Navitoclax] (partner 0.5 µM)
Outline: as §1

[2] = compound: O=C(C[C@H]1NCCC[C@@H]1O)Cn1cnc2cc(Br)c(Cl)cc2c1=O (racemic) [Halofuginone] + O=C(CCCCCCC(=O)Nc1ccccc1)NO [Vorinostat] (partner 1 µM)
Outline: as §1

Cell Line	relative viability (Decitabine + Crizotinib; first compound 0.04 µM)	relative viability (Decitabine + Crizotinib; first compound 0.1265 µM)	relative viability (Decitabine + Crizotinib; first compound 0.4 µM)	relative viability (Decitabine + Crizotinib; first compound 1.265 µM)	relative viability (Decitabine + Crizotinib; first compound 4 µM)	relative viability (Decitabine + Tozasertib; first compound 0.04 µM)	relative viability (Decitabine + Tozasertib; first compound 0.1265 µM)	relative viability (Decitabine + Tozasertib; first compound 0.4 µM)	relative viability (Decitabine + Tozasertib; first compound 1.265 µM)	relative viability (Decitabine + Tozasertib; first compound 4 µM)	relative viability ([1]; first compound 0.001 µM)	relative viability ([1]; first compound 0.003162 µM)	relative viability ([1]; first compound 0.01 µM)	relative viability ([1]; first compound 0.03162 µM)	relative viability ([1]; first compound 0.1 µM)	relative viability ([2]; first compound 0.001 µM)	relative viability ([2]; first compound 0.003162 µM)	relative viability ([2]; first compound 0.01 µM)	relative viability ([2]; first compound 0.03162 µM)	relative viability ([2]; first compound 0.1 µM)
NCI-H1437	0.692	0.748	0.632	0.297	0.216	0.358	0.363	0.281	0.201	0.17	1.09	1.13	1.06	0.976	0.436	0.965	0.886	0.772	0.747	0.501
NCI-H1355	0.642	0.495	0.413	0.29	0.281	0.315	0.334	0.263	0.224	0.224	0.929	0.949	0.902	1.08	0.715	0.688	0.648	0.596	0.663	0.561
SK-LU-1	0.668	0.614	0.352	0.484	0.453	0.283	0.288	0.214	0.238	0.24	0.821	0.895	0.874	1.42	0.275	0.835	0.818	0.839	0.787	0.368
NCI-H2228	0.524	0.394	0.367	0.199	0.286	0.176	0.207	0.134	0.114	0.104	0.976	0.857	0.879	0.228	0.126	0.822	0.807	0.726	0.424	0.0673
NCI-H2170	0.942	0.875	0.79	0.463	0.395	0.447	0.472	0.347	0.298	0.217	0.631	0.724	0.595	0.699	0.387	0.853	0.831	0.799	0.825	0.802
NCI-H2347	0.691	0.511	0.549	0.474	0.469	0.415	0.486	0.493	0.358	0.347	0.814	0.838	0.859	0.845	0.589	0.769	0.561	0.55	0.611	0.395
A-427	0.489	0.403	0.316	0.205	0.165	0.195	0.136	0.118	0.123	0.135	1.08	0.984	0.903	0.898	0.946	0.89	0.891	0.828	0.827	0.807
HCC-366	0.237	0.362	0.121	0.102	0.0419	0.0988	0.104	0.0711	0.0439	0.0387	1.05	1.07	1.04	1.04	0.0551	0.446	0.347	0.319	0.233	0.0907
